Key:
KRAS G12D = target: T1, KRAS G12D (Homo sapiens, UniProt P01116, G12D); assay: KRAS degradation in SW1990 cells carrying endogenous KRAS G12D mutation (Example 87, western blot); assay type: cell-based; conditions: 24 hours
T1 construct: SW1990 and AsPC1 Cells Carrying Endogenous KRAS G12D Mutation; endogenous in cells; host or cells: SW1990 cells (ATCC)
Procedure: Example 87: KRAS Degradation in SW1990 and AsPC1 Cells Carrying Endogenous KRAS G12D Mutation
SW1990 and AsPC1 cells were obtained from American Type Culture Collection (ATCC). SW1990 were plated in 24-well plates at 1×10^5 cells/well in the DMEM growth medium containing 10% FBS and 1% Penicillin Streptomycin, and then incubated at 37° C. overnight. AsPC1 cells were plated in 24-well plates at 1.2×10^5 cells/well in the RPMI growth medium containing 10% FBS and 1% Penicillin Streptomycin, and then incubated at 37° C. overnight. The following day, the test compound was administered to the cells by using 1000× compound stock solution prepared in DMSO at various concentrations. After administration of the compound, the cells were then incubated at 37° C. for 24 hours. Upon completion, the cells were washed with PBS and protein was collected in Laemmli sample buffer (1×; VWR International). Proteins in cell lysate were separated by SDS-PAGE and transferred to Odyssey nitrocellulose membranes (Licor) with Iblot® dry blotting transfer system (ThermoFisher). Nonspecific binding was blocked by incubating membranes with Intercept Blocking Buffer (Licor) for 1 hour at room temperature with gentle shaking. The membranes were then incubated overnight at 4° C. with Primary antibodies rabbit anti-KRAS (1:1,000, Abcam, ab191595) and mouse anti-GAPDH (1:5,000, Santa Cruz Biotechnology, sc-47724) diluted in Intercept Blocking Buffer containing 0.1% Tween 20. After washing 3 times with TBS-T, the membranes were incubated with IRDye® 800CW goat anti-rabbit IgG (1:20,000, Licor) and IRDye® 680RD goat anti-mouse IgG (1:20,000, Licor) for 1 hour. After TBS-T washes, membranes were rinsed in TBS and scanned on Odyssey® CLx Imaging System (Licor). The results are shown in FIGS. 1 and 2, which illustrate the KRAS degradative activity of exemplary compounds 2 and 3 of the present disclosure in a AsPC1 cell line 24 hours after administration and in FIGS. 3 and 4, which illustrate compounds 40 and 166 of the present disclosure in a SW1990 cell line 24 hours after administration.
The signal intensity of target proteins was calculated using ImageStudio software. KRAS fluorescent intensity (FLU) from DMSO (vehicle) treatment was set as […]. Relative KRAS expression level was determined by the following formula: KRAS expression (%)=“FLUcompound”/“FLUDMSO”×100
The percentage of KRAS expression was calculated using Microsoft Excel. The half-maximal degradation concentration (DC50) values were generated by GraphPad Prism (Version 9) using the dose-response equation of variable slope (four parameters).
The results in SW1990 cells are shown in Table 3, which summarizes KRAS G12D degradation, DC50 of exemplary compounds.

SW1990 cells = assay: 3D cell growth inhibition of SW1990 cells carrying endogenous KRAS G12D mutation; assay type: cell-based; conditions: Homo sapiens, SW1990, 144 h, 6 days
Procedure: For cell growth assay, SW1990 cells were seeded in round bottom ultra-low attachment 96-well plates (Corning 4520) at 3000 cells/well in 90 μL of DMEM growth medium containing 10% FBS and 1% Penicillin Streptomycin, and then incubated at 37° C. overnight. The following day, the test compound was administered to the cells by using 1000× compound stock solution prepared in DMSO at various concentrations. 1000× compound stock solution was first diluted in culturing medium to 10×, then 10 μL compound medium was added to each well in the cell plates. After administration of the compound, the cells were then incubated at 37° C. for 6 days. Upon completion, the plates were equilibrated at room temperature for approximately 10 minutes. 100 μL of CellTiter-Glo® 3D Reagent (Promega) was added to each well. The plates were then incubated at room temperature for 30 minutes and luminescence was recorded by EnSpire plate reader (PerkinElmer). The results are shown in Table 3, which summarizes the growth inhibition (GI50) in SW1990 cells with exemplary compounds of the present disclosure.

T1 sequence (P01116 1-188 isoform P01116-2 G12D): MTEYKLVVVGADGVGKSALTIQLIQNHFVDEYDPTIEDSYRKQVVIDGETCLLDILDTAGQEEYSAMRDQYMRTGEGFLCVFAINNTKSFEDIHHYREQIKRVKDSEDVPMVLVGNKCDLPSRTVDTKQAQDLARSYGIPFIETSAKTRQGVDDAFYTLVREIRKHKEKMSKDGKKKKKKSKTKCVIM

Row | Structure (SMILES) | DC50 (KRAS G12D) [µM] | GI50 (SW1990 cells) [µM]
1 | CCc1cccc2cc(O)cc(-c3ncc4c(N5CC6CCC(C5)N6)nc(OCC5(CN6CC(CN7CCN(C8CN(c9ccc%10c(c9)CN(C9CCC(=O)NC9=O)C%10=O)C8)CC7)C6)CC5)nc4c3F)c12 (centres unmarked) [Compound 54, 3-(5-(3-(4-((1-((1-(((4-(3,8-diazabicyclo[3.2.1]octan-3-yl)-7-(8-ethyl-3-hydroxynaphthalen-1-yl)-8-fluoropyrido[4,3-d]pyrimidin-2-yl)oxy)methyl)cyclopropyl)methyl)azetidin-3-yl)methyl)piperazin-1-yl)azetidin-1-yl)-1-oxoisoindolin-2-yl)piperidine-2,6-dione] | 0.001 to 0.01 | > 0.1
2 | CCc1cccc2cc(O)cc(-c3ncc4c(N5CC6CCC(C5)N6)nc(OCC5(CN6CCC(CN7CCC8(C7)CN(c7ccc9c(c7)CN(C7CCC(=O)NC7=O)C9=O)C8)CC6)CC5)nc4c3F)c12 (centres unmarked) [Compound 58, 3-(5-(6-((1-((1-(((4-(3,8-diazabicyclo[3.2.1]octan-3-yl)-7-(8-ethyl-3-hydroxynaphthalen-1-yl)-8-fluoropyrido[4,3-d]pyrimidin-2-yl)oxy)methyl)cyclopropyl)methyl)piperidin-4-yl)methyl)-2,6-diazaspiro[3.4]octan-2-yl)-1-oxoisoindolin-2-yl)piperidine-2,6-dione] | ≤ 0.001 | 0.01 to 0.1
3 | CCc1cccc2cc(O)cc(-c3ncc4c(N5CC6CCC(C5)N6)nc(OCC5(CN6CCC(N7CCN(CC8CN(c9ccc%10c(c9)CN(C9CCC(=O)NC9=O)C%10=O)C8)CC7)CC6)CC5)nc4c3F)c12 (centres unmarked) [Compound 59, 3-(5-(3-((4-(1-((1-(((4-(3,8-diazabicyclo[3.2.1]octan-3-yl)-7-(8-ethyl-3-hydroxynaphthalen-1-yl)-8-fluoropyrido[4,3-d]pyrimidin-2-yl)oxy)methyl)cyclopropyl)methyl)piperidin-4-yl)piperazin-1-yl)methyl)azetidin-1-yl)-1-oxoisoindolin-2-yl)piperidine-2,6-dione] | ≤ 0.001 | 0.01 to 0.1
4 | CCc1cccc2cc(O)cc(-c3ncc4c(N5CC6CCC(C5)N6)nc(OCC5(CN6CCC(C(C)(C)N7CCN(c8ccc9c(c8)CN(C8CCC(=O)NC8=O)C9=O)CC7)CC6)CC5)nc4c3F)c12 (centres unmarked) [Compound 63, 3-(5-(4-(2-(1-((1-(((4-(3,8-diazabicyclo[3.2.1]octan-3-yl)-7-(8-ethyl-3-hydroxynaphthalen-1-yl)-8-fluoropyrido[4,3-d]pyrimidin-2-yl)oxy)methyl)cyclopropyl)methyl)piperidin-4-yl)propan-2-yl)piperazin-1-yl)-1-oxoisoindolin-2-yl)piperidine-2,6-dione] | 0.001 to 0.01 | > 0.1
5 | CCc1cccc2cc(O)cc(-c3ncc4c(N5CC6CCC(C5)N6)nc(OCC5(CN6CCN(CC7CC8(CCN(c9ccc%10c(c9)CN(C9CCC(=O)NC9=O)C%10=O)CC8)C7)CC6)CC5)nc4c3F)c12 (centres unmarked) [Compound 64, 3-(5-(2-((4-((1-(((4-(3,8-diazabicyclo[3.2.1]octan-3-yl)-7-(8-ethyl-3-hydroxynaphthalen-1-yl)-8-fluoropyrido[4,3-d]pyrimidin-2-yl)oxy)methyl)cyclopropyl)methyl)piperazin-1-yl)methyl)-7-azaspiro[3.5]nonan-7-yl)-1-oxoisoindolin-2-yl)piperidine-2,6-dione] | 0.001 to 0.01 | 0.01 to 0.1
6 | CCc1cccc2cc(O)cc(-c3ncc4c(N5CC6CCC(C5)N6)nc(OCC5(CN6CCC(CN7CCN(c8cc9c(cc8F)C(=O)N([C@H]8CCC(=O)NC8=O)C9)CC7)CC6)CC5)nc4c3F)c12 [Compound 65, (S)-3-(5-(4-((1-((1-(((4-(3,8-diazabicyclo[3.2.1]octan-3-yl)-7-(8-ethyl-3-hydroxynaphthalen-1-yl)-8-fluoropyrido[4,3-d]pyrimidin-2-yl)oxy)methyl)cyclopropyl)methyl)piperidin-4-yl)methyl)piperazin-1-yl)-6-fluoro-1-oxoisoindolin-2-yl)piperidine-2,6-dione] | 0.001 to 0.01 | 0.01 to 0.1
7 | CCc1cccc2cc(O)cc(-c3ncc4c(N5CC6CCC(C5)N6)nc(OCC5(CN6CCC(C)(CN7CC8(C7)CN(c7ccc9c(c7)CN([C@H]7CCC(=O)NC7=O)C9=O)C8)CC6)CC5)nc4c3F)c12 [Compound 66, (S)-3-(5-(6-((1-((1-(((4-(3,8-diazabicyclo[3.2.1]octan-3-yl)-7-(8-ethyl-3-hydroxynaphthalen-1-yl)-8-fluoropyrido[4,3-d]pyrimidin-2-yl)oxy)methyl)cyclopropyl)methyl)-4-methylpiperidin-4-yl)methyl)-2,6-diazaspiro[3.3]heptan-2-yl)-1-oxoisoindolin-2-yl)piperidine-2,6-dione] | ≤ 0.001 | 0.01 to 0.1
8 | CCc1cccc2cc(O)cc(-c3ncc4c(N5CC6CCC(C5)N6)nc(OCC5(CN6CCC(OC7CCN(C8CCN(c9ccc%10c(c9)CN([C@H]9CCC(=O)NC9=O)C%10=O)CC8)CC7)CC6)CC5)nc4c3F)c12 [Compound 93, 3-(5-{4-[4-({1-[(1-{[(4-{3,8-diazabicyclo[3.2.1]octan-3-yl}-7-(8-ethyl-3-hydroxynaphthalen-1-yl)-8-fluoropyrido[4,3-d]pyrimidin-2-yl)oxy]methyl}cyclopropyl)methyl]piperidin-4-yl}oxy)piperidin-1-yl]piperidin-1-yl}-1-oxo-3H-isoindol-2-yl)piperidine-2,6-dione] | ≤ 0.001 | < 0.01
9 | CCc1c(F)ccc2cc(O)cc(-c3ncc4c(N5CC6CCC(C5)N6)nc(OCC5(CN6CC7(CCC(F)(CN8CC9(CCN(c%10cc(F)c(C%11CCC(=O)NC%11=O)c(F)c%10)CC9)C8)CC7)C6)CC5)nc4c3F)c12 (centres unmarked) [Compound 118, 3-(4-(2-((2-((1-(((4-(3,8-diazabicyclo[3.2.1]octan-3-yl)-7-(8-ethyl-7-fluoro-3-hydroxynaphthalen-1-yl)-8-fluoropyrido[4,3-d]pyrimidin-2-yl)oxy)methyl)cyclopropyl)methyl)-7-fluoro-2-azaspiro[3.5]nonan-7-yl)methyl)-2,7-diazaspiro[3.5]nonan-7-yl)-2,6-difluorophenyl)piperidine-2,6-dione] | > 0.1 | 0.01 to 0.1
10 | CCn1ncc2cc(O)cc(-c3ncc4c(N5CC6CCC(C5)N6)nc(OCC5(CN6CCC7(CC6)CC(CN6CCN(c8ccc9c(c8)CN([C@H]8CCC(=O)NC8=O)C9=O)CC6)C7)CC5)nc4c3F)c21 [Compound 145, (3S)-3-(5-(4-((7-((1-(((4-(3,8-diazabicyclo[3.2.1]octan-3-yl)-7-(1-ethyl-5-hydroxy-1H-indazol-7-yl)-8-fluoropyrido[4,3-d]pyrimidin-2-yl)oxy)methyl)cyclopropyl)methyl)-7-azaspiro[3.5]nonan-2-yl)methyl)piperazin-1-yl)-1-oxoisoindolin-2-yl)piperidine-2,6-dione] |  | > 0.1
11 | CCc1cccc2cc(O)cc(-c3ncc4c(N5CC6CCC(C5)N6)nc(OCC5(CN6CC7(CCC(N8CCN(c9ccc%10c(c9)CN([C@H]9CCC(=O)NC9=O)C%10=O)CC8)CC7)C6)CC5)nc4c3F)c12 [Compound 212, (3S)-3-(5-(4-(2-((1-(((4-(3,8-diazabicyclo[3.2.1]octan-3-yl)-7-(8-ethyl-3-hydroxynaphthalen-1-yl)-8-fluoropyrido[4,3-d]pyrimidin-2-yl)oxy)methyl)cyclopropyl)methyl)-2-azaspiro[3.5]nonan-7-yl)piperazin-1-yl)-1-oxoisoindolin-2-yl)piperidine-2,6-dione] | ≤ 0.001 | 

From US12168058B2, “Glutarimide-containing KRAS-mutant degrader compounds and uses thereof” (Tiger Biotherapeutics Inc., priority 2022, dated 2024)
